Measured values taken from the supplement of paper PMC10307832.

Key:
Assay in all cases: relative viability (nuclei count vs DMSO), 5 days (fraction); higher = more cells survive
CUDC-101 + Luminespib = compound: C#Cc1cccc(Nc2ncnc3cc(OC)c(OCCCCCCC(=O)NO)cc23)c1 [CUDC-101] + CCNC(=O)c1noc(-c2cc(C(C)C)c(O)cc2O)c1-c1ccc(CN2CCOCC2)cc1 [Luminespib] (partner 0.01 µM)
In short: (§1)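 Nuclei were stained with Hoechst during a one-step fixation (final 0.05% Triton X-100, 1% formaldehyde, 1 ug/ml Hoechst) carried out 5 days after dosing, then counted on 4× images. The cells, lung cancer lines in 1536-well plates, had been dosed by pin tool the day after seeding with one drug alone or a fixed anchor-drug dose plus five library-drug doses (not always all listed) in √10 steps. Relative viability is the nuclei count in treated wells divided by that in vehicle wells, and each value is the median of duplicate plates.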

NVP-TAE684 + Alpelisib = compound: COc1cc(N2CCC(N3CCN(C)CC3)CC2)ccc1Nc1ncc(Cl)c(Nc2ccccc2S(=O)(=O)C(C)C)n1 [NVP-TAE684] + Cc1nc(NC(=O)N2CCC[C@H]2C(N)=O)sc1-c1ccnc(C(C)(C)C(F)(F)F)c1 [Alpelisib] (partner 2 µM)
In short: as §1

Vandetanib + Navitoclax = compound: COc1cc2/c(=N/c3ccc(Br)cc3F)nc[nH]c2cc1OCC1CCN(C)CC1 [Vandetanib] + CC1(C)CCC(c2ccc(Cl)cc2)=C(CN2CCN(c3ccc(C(=O)NS(=O)(=O)c4ccc(N[C@H](CCN5CCOCC5)CSc5ccccc5)c(S(=O)(=O)C(F)(F)F)c4)cc3)CC2)C1 [Navitoclax] (partner 0.5 µM)
In short: as §1

Vandetanib + Crizotinib = compound: COc1cc2/c(=N/c3ccc(Br)cc3F)nc[nH]c2cc1OCC1CCN(C)CC1 [Vandetanib] + C[C@@H](Oc1cc(-c2cnn(C3CCNCC3)c2)cnc1N)c1c(Cl)ccc(F)c1Cl [Crizotinib] (partner 1 µM)
In short: as §1

Cell Line	relative viability (CUDC-101 + Luminespib; first compound 0.01 µM)	relative viability (CUDC-101 + Luminespib; first compound 0.03162 µM)	relative viability (CUDC-101 + Luminespib; first compound 0.1 µM)	relative viability (CUDC-101 + Luminespib; first compound 0.3162 µM)	relative viability (CUDC-101 + Luminespib; first compound 1 µM)	relative viability (NVP-TAE684 + Alpelisib; first compound 0.2 µM)	relative viability (NVP-TAE684 + Alpelisib; first compound 0.6325 µM)	relative viability (NVP-TAE684 + Alpelisib; first compound 2 µM)	relative viability (Vandetanib + Navitoclax; first compound 0.02 µM)	relative viability (Vandetanib + Navitoclax; first compound 0.06325 µM)	relative viability (Vandetanib + Navitoclax; first compound 0.2 µM)	relative viability (Vandetanib + Navitoclax; first compound 0.6325 µM)	relative viability (Vandetanib + Navitoclax; first compound 2 µM)	relative viability (Vandetanib + Crizotinib; first compound 0.02 µM)	relative viability (Vandetanib + Crizotinib; first compound 0.06325 µM)	relative viability (Vandetanib + Crizotinib; first compound 0.2 µM)	relative viability (Vandetanib + Crizotinib; first compound 0.6325 µM)	relative viability (Vandetanib + Crizotinib; first compound 2 µM)
CAL-12T	0.525	0.337	0.337	0.556	0.36	1.24	1.38	0.535	1.22	1.19	1.37	1.28	1.13	0.778	0.846	0.799	0.707	0.364
SK-MES-1	0.854	0.72	0.755	0.567	0.52	0.691	1	0.827	1.26	1.04	1.24	1.27	1.2	1.01	0.902	0.938	0.926	0.875
SW 1573	0.238	0.252	0.516	0.187	0.164	0.574	0.827	0.592	1.03	0.895	1.25	0.862	0.993	0.896	0.704	0.7	0.815	0.849
NCI-H1975	0.336	0.155	0.254	0.351	0.213	0.703	0.545	0.235	1.14	1.13	1.13	0.992	1.1	0.887	0.943	0.922	0.994	0.852
NCI-H647	0.188	0.266	0.147	0.195	0.238	1.32	1.1	0.377	0.943	1.09	1.16	1.17	1.06	1.06	1.07	1.1	1.06	0.981
NCI-H322M	0.84	0.697	0.899	1.01	0.697	0.638	0.771	0.818	1.14	1.1	1.24	1.04	1.15	0.899	0.952	0.937	0.88	0.897
